Test results taken from publication PMC6435334 (Nature chemical biology, 2018).

Legend:
[1] = biological target: D-apionate lactonase / D-apionolactonase (A6X3G3, "hypothetical" protein) (Brucella anthropi, UniProt A6X3G3)
[2] = biological target: D-apiose dehydrogenase (B9JK80) (Martinezella rhizogenes, UniProt B9JK80); experiment: NADH formation, […] nm; format: biochemical; conditions: 1.5 mM NAD+; 50 mM Tris-HCl pH 8.5; 25 °C; furanose D-apiose
Sequence of D-apiose dehydrogenase (B9JK80) (B9JK80 whole entry): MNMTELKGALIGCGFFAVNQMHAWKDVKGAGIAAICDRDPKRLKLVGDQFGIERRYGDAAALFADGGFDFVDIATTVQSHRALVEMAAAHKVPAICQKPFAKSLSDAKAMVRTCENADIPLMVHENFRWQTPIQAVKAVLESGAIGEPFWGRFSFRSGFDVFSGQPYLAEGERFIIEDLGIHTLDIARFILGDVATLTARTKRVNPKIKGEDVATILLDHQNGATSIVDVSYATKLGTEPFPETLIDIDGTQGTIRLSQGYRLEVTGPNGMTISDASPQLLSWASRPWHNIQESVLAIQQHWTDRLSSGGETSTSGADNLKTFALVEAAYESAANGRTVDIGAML

Sequence of D-apionate lactonase / D-apionolactonase (A6X3G3, "hypothetical" protein) (A6X3G3 whole entry, looked up, one chain of several): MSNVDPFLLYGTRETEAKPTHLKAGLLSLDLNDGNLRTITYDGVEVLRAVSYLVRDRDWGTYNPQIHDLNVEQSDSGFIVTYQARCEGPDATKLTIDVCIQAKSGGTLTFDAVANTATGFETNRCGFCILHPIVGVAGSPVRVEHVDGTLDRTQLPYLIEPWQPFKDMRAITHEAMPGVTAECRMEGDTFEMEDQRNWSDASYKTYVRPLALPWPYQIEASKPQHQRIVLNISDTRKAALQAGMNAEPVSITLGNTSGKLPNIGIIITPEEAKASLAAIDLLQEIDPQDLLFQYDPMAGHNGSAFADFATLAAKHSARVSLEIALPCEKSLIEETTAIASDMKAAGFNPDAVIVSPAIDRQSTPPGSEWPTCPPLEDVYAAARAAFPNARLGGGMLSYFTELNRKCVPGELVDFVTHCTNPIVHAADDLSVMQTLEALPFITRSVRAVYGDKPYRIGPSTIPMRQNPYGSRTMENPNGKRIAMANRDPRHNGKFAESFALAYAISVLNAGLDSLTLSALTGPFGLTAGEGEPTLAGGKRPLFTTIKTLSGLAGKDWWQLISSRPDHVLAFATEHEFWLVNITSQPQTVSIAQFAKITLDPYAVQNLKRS

SMILES: O=C1OCC(O)(CO)[C@H]1O (stereo partly drawn) [D-apionolactone]
- 1H NMR, D-apionolactone generated in situ by B9JK80 [1]: it hydrolyzed D-apionolactone to D-apionate

SMILES: O=C[C@H](O)C(O)(CO)CO [D-apiose]
- KM [2]: (B9JK80) catalyzed oxidation of D-apiose to D-apionolactone using NAD^+
